Measurements reported in patent US10842151B2, “Small molecule compound for enhancing plant stress resistance” (SHANGHAI INSTITUTES FOR BIOLOGICAL SCIENCES, CHINESE …, priority 2015, dated 2020).
Where two headings read alike, the source gives them in different places.

Experiments:
[1] = target: T1, PYL2 + HAB1 (Arabidopsis thaliana, UniProt O80992); assay: AlphaScreen experiment, PYL2 + HAB1; format: binding
T1 construct: made in house; host or cells: E. coli BL21 (DE3)
T1 sequence (O80992 14-188 limits assumed): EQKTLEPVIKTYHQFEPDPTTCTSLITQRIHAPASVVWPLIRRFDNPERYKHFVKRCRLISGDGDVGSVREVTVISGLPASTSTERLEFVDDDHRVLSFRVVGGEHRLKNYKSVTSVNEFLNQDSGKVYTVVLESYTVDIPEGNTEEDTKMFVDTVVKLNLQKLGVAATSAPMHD
T1 sequence (Q9CAJ0 172-511 partner limits assumed): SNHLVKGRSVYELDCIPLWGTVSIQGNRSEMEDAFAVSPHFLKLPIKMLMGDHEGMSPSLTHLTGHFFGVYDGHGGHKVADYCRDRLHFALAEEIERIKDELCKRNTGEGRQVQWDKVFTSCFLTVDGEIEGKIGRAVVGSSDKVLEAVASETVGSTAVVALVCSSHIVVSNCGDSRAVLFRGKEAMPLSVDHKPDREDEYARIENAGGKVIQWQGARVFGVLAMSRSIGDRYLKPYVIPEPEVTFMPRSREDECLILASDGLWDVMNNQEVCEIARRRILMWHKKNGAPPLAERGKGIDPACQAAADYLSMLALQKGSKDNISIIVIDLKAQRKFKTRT
Method: (§1) After incubating for 1.5 hours at room temperature in the dark, it was placed into an Envision Plate Reader (available from Perkin Elmer) under the programmed AlphaScreen procedure for readings.

[2] = target: T2, PYR1 + HAB1 (Arabidopsis thaliana, UniProt O49686); assay: AlphaScreen experiment, PYR1 + HAB1; format: binding; settings: column 2
T2 sequence (O49686 1-191): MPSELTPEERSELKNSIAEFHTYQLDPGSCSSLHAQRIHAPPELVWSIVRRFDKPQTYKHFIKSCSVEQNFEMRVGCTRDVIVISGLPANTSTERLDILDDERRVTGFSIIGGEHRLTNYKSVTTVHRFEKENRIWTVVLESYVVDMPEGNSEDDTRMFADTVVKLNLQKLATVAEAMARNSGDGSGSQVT
T2 sequence (Q9CAJ0 172-511 partner): T1 sequence (Q9CAJ0 172-511 partner limits assumed)
Method: as §1

[3] = target: T3, PYL7 + HAB1 (Arabidopsis thaliana, UniProt Q1ECF1); assay: AlphaScreen experiment, PYL7 + HAB1; format: binding
T3 construct: made in house; host or cells: E. coli BL21 (DE3)
T3 sequence (Q1ECF1 1-211): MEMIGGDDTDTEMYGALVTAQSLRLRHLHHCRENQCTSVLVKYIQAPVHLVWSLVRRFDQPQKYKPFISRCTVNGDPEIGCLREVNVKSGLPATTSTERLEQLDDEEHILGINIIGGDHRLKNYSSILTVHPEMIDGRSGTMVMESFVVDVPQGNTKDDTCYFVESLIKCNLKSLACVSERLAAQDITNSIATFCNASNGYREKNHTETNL
T3 sequence (Q9CAJ0 172-511 partner limits assumed): T1 sequence (Q9CAJ0 172-511 partner limits assumed)
Method: as §1

[4] = target: T1, PYL2 + HAB1; assay: HAB1 phosphatase activity assay with PYL2, SnRK2.6 phosphorylated polypeptide substrate; format: biochemical
Method: (§2) HAB1 Phosphatase Activity Assay […] The reaction system was incubated at room temperature for 30 minutes, followed by a further reaction for 30 minutes after adding an 11-amono acid phosphorylated polypeptide as a substrate. The phosphorylated polypeptide consisting of amino acid 170-180 of SnRK2.6 protein kinase (sequence […]) was purchased from […] company, wherein phosphorylated […] was a known HAB1 dephosphorylation target site. After 30 minutes, chromogenic reagent (purchased from BioVision) was added and the absorbance at 650 nm was read on a microplate reader (Molecular Devices).

[5] = system: Arabidopsis Col-0 ecotype; assay: Soil drought experiment, Arabidopsis; format: in vivo, Arabidopsis thaliana
Method: Seeds of Arabidopsis Col-0 ecotype were sterilized with NaClO and then sown on ½ MS solid medium at 4° C. for 3 days of vernalization. After 6 days of growing, the well-grown seedlings having uniform size were selected and transferred into 8×7×6 cm^3 pots. Each pot was filled with the same weight of soil and the same number of plants (six plants) was planted to reduce experimental error. All the pots were subjected to a short-day culture at 22° C. After two weeks, watering was stopped for drought treatment. […] The position of the flowerpot was changed every day during the process of drought to reduce the error caused by environmental factors. During the whole drought period, the solution was sprayed twice in total and photos were recorded regularly. The watering was resumed in about three weeks.

[6] = system: Arabidopsis ABA synthesis defective mutant aba2-1; format: in vivo, Arabidopsis thaliana; settings: 5 μM sprayed; after two days; vs DMSO
[7] = system: cotton; assay: Cotton leaf transpiration experiment (thermal imaging); format: in vivo; settings: 50 μM; after two days; vs DMSO
Method: (§3) Leaf transpiration experiments of soybean and cotton for compound 0720B were carried out at 26° C. with long-day lighting. 16 days and 23 days after sowing, a solution containing 0.1% tween-20 and corresponding concentration of (+)-ABA, or 0720B compound or 0.1% Tween-20 and 0.05% DMSO (control) was sprayed in an amount of 4 ml/pot. Images were taken daily using the FLIR A655sc thermal imaging camera at the same time before and after spraying.

[8] = system: pyr1;pyl1;pyl4 triple mutant seeds; assay: Seed germination, PYR/PYL triple mutant; format: in vivo, Arabidopsis thaliana; settings: 1 μM; six days after seeding
Description: (§4) Two lines of plant were sown simultaneously on a single medium of 6 cm diameter, with 15 seeds sown for each line and 4 replicates for each compound. […]

[9] = system: Arabidopsis thaliana Col-0 ecotype seeds; assay: Seed germination, Col-0; format: in vivo; settings: 1 μM; six days after seeding
Description: as §4

[10] = system: soybean Williams 82; assay: Soybean leaf transpiration experiment (thermal imaging); format: in vivo
Method: After three weeks of continuous watering, 0.05% tween-20 and corresponding concentrations of DMSO (control)/compound (+)-ABA/0918/1127 were sprayed onto the plants in a single administration with an amount of 1.2 ml/pot. Images were taken daily using the FLIR A655sc thermal imaging camera at the same time before and after spraying. The Williams 82 ecotype was used in soybean leaf transpiration experiments for compounds 0604c, 0918 and 1127 and was long-day cultured at 26° C. After the plants grew and had 3 leaves in each of 3 groups, 0.05% tween-20 and 50 μM DMSO (control)/(+)-ABA/0604c/0918/1127 compounds were sprayed in a single administration with an amount of 4 ml/pot. Images were taken daily using the FLIR A655sc thermal imaging camera at the same time before and after spraying.
as §3

[11] = system: ABA-induced environmental stress-related gene expression; assay: Gene expression analysis (fluorescence quantitative PCR); format: in vivo, Arabidopsis thaliana (Col-0); settings: for expression levels of most ABA-induced stress-related genes compared with ABA: 10 μM, 6 hours of treatment, 10-day-aged seedlings
Method: The whole plant or leaves were taken, and RNA extraction was carried out by using conventional methods. After reverse transcription, the fluorescence quantitative PCR was carried out. Triple biological samples were taken for each treatment which was performed twice. The ACT7 gene was used as a reference gene.

[12] = system: soybean GmPYL3 and GmPYL6 + Arabidopsis AtHAB1; assay: AlphaScreen experiment with soybean GmPYL receptors; format: binding; settings: FIG. 9
Method: as §1

[13] = system: PYR/PYL receptors (PYR1, PYL1, PYL2 and PYL7)-HAB1 complex; assay: Broad spectrum experiment on PYR/PYL receptors (HAB1 phosphatase activity); format: biochemical, Arabidopsis; settings: 1 μM
Method: as §2

[14] = number in brackets, read-out: Half maximum effect concentration EC50 (PYL2 + HAB1)
[15] = number in brackets, read-out: Half maximum effect concentration EC50 (PYR1 + HAB1)
[16] = number in brackets, read-out: Half maximum effect concentration EC50 (PYL7 + HAB1)
[17] = 5 μM sprayed, 18 days after drought
[18] = 10 μM sprayed, after 17 days of drought

## CCCN1C(=O)CCc2cc(NS(=O)(=O)Cc3c(F)c(F)c(C(F)(F)F)c(F)c3F)ccc21 [Compound 1020B]
[1]; [14]
  EC50: 0.08 µM
[2]; [15]
  EC50: 0.05 µM

## CCCN1C(=O)CCc2cc(NS(=O)(=O)Cc3ccc(C)c(Cl)c3)ccc21 [Compound 1103B]
[1]; [14]
  EC50: 0.05 µM
[2]; [15]
  EC50: 0.12 µM
[3]; [16]
  EC50: 0.15 µM

## CCCN1C(=O)CCc2cc(NS(=O)(=O)Cc3ccc(C(F)(F)F)c(F)c3)ccc21 [Compound 1020A]
[1]; [14]
  EC50: 0.08 µM
[2]; [15]
  EC50: 0.14 µM

## CCCN1C(=O)CCc2cc(NS(=O)(=O)Cc3ccc(Cl)cc3F)ccc21 [Compound 0925]
[1]; [14]
  EC50: 0.06 µM
[2]; [15]
  EC50: 0.04 µM

## CCCN1C(=O)CC(C)(C)c2cc(NS(=O)(=O)Cc3c(F)c(F)c(C)c(F)c3F)ccc21 [Compound 0825A]
[4]; PYL2 receptor, same concentration as ABA
  inhibition of the dephosphorylation effect of HAB1 on SnRK2.6 phosphorylated polypeptide compared with ABA: significantly better than that of ABA at the same concentration

## CC1=CC(=O)CC(C)(C)[C@@]1(O)/C=C/C(C)=C\C(=O)O [ABA, Abscisic Acid, reference compound]
[5]; [17]
  plant survival: died because of drought
[5]; [18]
  plant survival: died because of drought
[6]
  leaf surface temperature: higher than that of DMSO control group
[7]
  leaf temperature: had no difference from that in the control group
[1]; Half maximum effect concentration EC50 (PYL2 + HAB1), class, class symbol
  EC50: 0.1 to 1 µM
[1]; Half maximum effect concentration EC50 (PYL2 + HAB1), number in brackets
  EC50: 0.41 µM
[2]; Half maximum effect concentration EC50 (PYR1 + HAB1), class, class symbol
  EC50: 0.1 to 1 µM
[2]; Half maximum effect concentration EC50 (PYR1 + HAB1), number in brackets
  EC50: 0.7 µM
[8]
  germination of pyr1;pyl1;pyl4 triple mutant seeds: could not inhibit germination of PYR/PYL triple mutant pyr1;pyl1;pyl4 seeds
[3]; Half maximum effect concentration EC50 (PYL7 + HAB1), class, class symbol
  EC50: 1 to 10 µM
[3]; Half maximum effect concentration EC50 (PYL7 + HAB1), number in brackets
  EC50: 1.07 µM
[9]
  germination of Col-0 ecotype seeds: could still inhibit germination of Col-0 ecotype seeds
[10]; 50 μM sprayed, 0.2 μmol per plant, after three days, vs DMSO
  leaf temperature: had no difference with the control
[10]; two days after spraying, 0720B 20 μM or 50 μM, ABA 50 μM
  leaf temperature: had no difference from that in the control group

## CCCn1c(=O)ccc2cc(NS(=O)(=O)Cc3c(F)c(F)c(C)c(F)c3F)ccc21 [Compound 0717]
[11]
  expression levels of most ABA-induced stress-related genes compared with ABA: significantly exceeded the level in the plants treated with 10 μM ABA

## CCCN1C(=O)CCc2cc(NS(=O)(=O)Cc3ccc(C)cc3F)ccc21 [Compound 1125A]
[1]; [14]
  EC50: 0.03 µM
[2]; [15]
  EC50: 0.05 µM
[3]; [16]
  EC50: 0.04 µM

## CCCN1C(=O)CCc2cc(NS(=O)(=O)Cc3ccc(C)c(F)c3)ccc21 [Compound 0604c]
[5]; [18]
  plant survival: still survived
[1]; [14]
  EC50: 0.04 µM
[2]; [15]
  EC50: 0.04 µM
[8]
  germination of pyr1;pyl1;pyl4 triple mutant seeds: could not inhibit germination of PYR/PYL triple mutant pyr1;pyl1;pyl4 seeds
[12]
  affinities for soybean GmPYL proteins compared with ABA: significantly higher affinities
[3]; [16]
  EC50: 0.03 µM
[9]
  germination of Col-0 ecotype seeds: could still inhibit germination of Col-0 ecotype seeds
[11]
  expression levels of most ABA-induced stress-related genes compared with ABA: significantly exceeded the level in the plants treated with 10 μM ABA
[11]; one day after treatment, ABA 10 μM
  expression level of relevant genes compared with ABA: significantly higher than that in the plants treated with 10 μM ABA
[13]
  binding to PYR/PYL receptors: could bind with PYR1/PYL1/PYL2/PYL3/PYL4/PYL5/PYL7/PYL10
[13]; FIG. 1, FIG. 13
  binding ability with PYR1/PYL1/PYL2/PYL7 compared with ABA: significantly higher than those of ABA

## CCCN1C(=O)CCc2cc(NS(=O)(=O)Cc3ccc(C)cc3)ccc21 [AM1, 4-methyl-N-(1,2,3,4-tetrahydro-2-oxo-1-propyl-6-quinolinyl)-benzene methanesulfonamide, reference compound]
[5]; [18]
  plant survival: died because of drought
[6]
  leaf surface temperature: higher than that of DMSO control group
[1]; [14]
  EC50: 0.48 µM
[8]
  germination of pyr1;pyl1;pyl4 triple mutant seeds: could not inhibit germination of PYR/PYL triple mutant pyr1;pyl1;pyl4 seeds
[4]; at 0.1 μM, Z relative to ABA
  inhibition ratio Z of HAB1 relative enzyme activity (PYL2 + HAB1): 86%
[9]
  germination of Col-0 ecotype seeds: could still inhibit germination of Col-0 ecotype seeds
[11]
  expression levels of most ABA-induced stress-related genes compared with ABA: lower than the level in the plants treated with 10 μM ABA

## CCCN1C(=O)CCc2cc(NS(=O)(=O)Cc3cc(F)c(C)c(F)c3)ccc21 [Compound 1125B]
[5]; [17]
  plant survival: still survived
[1]; [14]
  EC50: 0.02 µM
[2]; [15]
  EC50: 0.02 µM
[3]; [16]
  EC50: 0.02 µM
